Values of other authors, collected in publication PMC6698915 (Cancer chemotherapy and pharmacology, 2015).

Test system: patients with locally advanced (M0) head and neck cancer
Conditions: with cisplatin and docetaxel 75 mg/m^2 q21 days, pegfilgrastim, previously untreated; cited from earlier work

CO[C@H]1C[C@@H]2CC[C@@H](C)[C@@](O)(O2)C(=O)C(=O)N2CCCC[C@H]2C(=O)O[C@H]([C@H](C)C[C@@H]2CC[C@@H](OCCO)[C@H](OC)C2)CC(=O)[C@H](C)/C=C(\C)[C@@H](O)[C@@H](OC)C(=O)[C@H](C)C[C@H](C)/C=C/C=C/C=C/1C [everolimus]
escalation to full dose of daily everolimus: not possible to escalate to full dose of daily everolimus due to dose-limiting neutropenia
